This note sets out measurements from patent US11236055B2 (Venenum Biodesign, LLC, priority 2016, dated 2022).

Molecules are shown by their SMILES.

The target in one data set is T1, human TGR5 receptor (Homo sapiens, UniProt Q8TDU6).
T1 construct: host or cells: CHO-K1 (hTGR5-CHO cells)
T1 sequence (Q8TDU6 1-330): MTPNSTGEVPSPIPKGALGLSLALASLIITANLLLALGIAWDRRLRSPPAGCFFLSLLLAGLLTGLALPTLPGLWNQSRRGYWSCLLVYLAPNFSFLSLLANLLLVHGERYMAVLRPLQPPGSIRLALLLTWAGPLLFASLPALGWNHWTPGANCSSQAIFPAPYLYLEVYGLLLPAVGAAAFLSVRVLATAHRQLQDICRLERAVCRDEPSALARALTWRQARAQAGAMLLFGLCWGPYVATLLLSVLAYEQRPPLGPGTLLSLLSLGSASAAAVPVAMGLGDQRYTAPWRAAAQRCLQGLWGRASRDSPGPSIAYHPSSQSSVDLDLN
Briefly: Human TGR5 cAMP production assay. Format: cell-based. The conditions noted are these: human TGR5, luminescent cAMP assay; coded A-D; read-out: Human TGR5 Lum. cAMP Activity (EC50). In outline:
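CHO-K1 cells stably expressing human TGR5, with IBMX and cAMP antibody, were exposed to half-log serially diluted compound for 1 h at room temperature. cAMP measured by enzyme-fragment complementation luminescence (XS+ kit) after overnight incubation; EC50 values reported.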

Data set [1] deals with T2, mouse TGR5 receptor (Mus musculus, UniProt Q80SS6).
T2 construct: expressed in transfected cells; host or cells: HEK293-EBNA (293 c18, ATCC CRL10852), Hygromycin B selection
T2 sequence (Q80SS6 1-329): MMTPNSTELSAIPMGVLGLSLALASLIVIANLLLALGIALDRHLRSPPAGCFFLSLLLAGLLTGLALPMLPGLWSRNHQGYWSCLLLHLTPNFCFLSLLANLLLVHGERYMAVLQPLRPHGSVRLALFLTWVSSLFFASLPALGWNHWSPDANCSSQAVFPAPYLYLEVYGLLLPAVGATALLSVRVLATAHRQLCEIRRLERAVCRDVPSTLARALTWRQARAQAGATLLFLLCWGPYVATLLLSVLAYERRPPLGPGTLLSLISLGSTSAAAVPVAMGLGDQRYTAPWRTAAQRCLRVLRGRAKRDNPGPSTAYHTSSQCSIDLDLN
Briefly: Mouse TGR5 cAMP production assay (luminescent, DiscoveRx cAMP XS+). In kind it is cell-based. Conditions: HEK293-EBNA cells overexpressing mouse TGR5, luminescent cAMP XS+; coded A-D; read-out: Mouse TGR5 Lum. cAMP Activity (EC50). The method, boiled down: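 HEK293-EBNA cells stably expressing mouse TGR5 were suspended in serum-free DMEM with 500 μM IBMX and preincubated 20 min with cAMP antibody. They were then exposed to half-log compound dilutions for 1 h at room temperature. cAMP measured by enzyme-fragment complementation luminescence after overnight incubation; EC50 derived.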

Another data set concerns Mouse STC-1 cells. Briefly: STC-1 GLP-1 assay. In kind it is cell-based. The conditions noted are these: GLP-1 secretion, 2 h, coded A-C, read-out: Mouse STC-1 HTRF GLP-1 Activity (EC50). The method, then:
We evaluated Compounds of the present invention for their ability to induce GLP-1 production in mouse intestinal neuroendocrine tumor cells. Mouse STC-1 cells were cultured and maintained in high glucose DMEM (Sigma #5796) supplemented with 15% horse serum, 5% Fetal Bovine Serum (FBS), 1% penicillin/streptomycin, and 2 mM L-alanine L-glutamine (GlutaMax). Two days prior to analysis of GLP-1 secretion cells were harvested using Accutase (Sigma), spun down then resuspended in high glucose DMEM media containing 2 mM L-alanine L-glutamine (GlutaMax), 10% charcoal-dextran stripped FBS, and 50 μg/mL Gentamicin, at a density of 100,000 cells/mL. 100 μL of cell suspension was added to each well of a 96-well Poly-D-Lysine coated culture plate (Sigma; cat #2382493) and was incubated at 37° C. with 5% CO2.
Compounds were initially diluted in 100% DMSO (12-point serial dilution by half logs) in a 96-well plate and then were further diluted 1:500 in Hanks' Balanced Salt Solution (HBSS) containing protease inhibitor cocktail, DPP-IV inhibitor, and 0.1% fatty acid free bovine serum albumin. On the day of the experiment cells were washed once with HBSS. After wash, 100 μL of test compound was added to each well. The plate was incubated at 37° C. with 5% CO2 for 2 h. Supernatants were collected and GLP-1 secretion was measured using the Cisbio™ Active GLP-1 HTRF Assay Kit (Cisbio). Briefly, Anti-GLP-1-d2 conjugate and Anti-GLP-1 Terbium Cryptate conjugate stock solutions were prepared as per kit instructions. The two solutions were pre-mixed and 10 μL were transferred to a 384-well low volume plate (Greiner; cat #784075). 10 μL of collected supernatants were added to wells already containing the conjugate solution. The plate was covered and incubated at room temperature overnight. The plate was read on an Envision™ plate reader (Perkin Elmer).
In Table 34, EC50 values obtained from the STC-1 GLP-1 production assay for compounds of the present invention are summarized.

The target of data set [2] is T2, mouse TGR5 receptor. Briefly: Mouse TGR5 cAMP production assay (HTRF, Cisbio cAMP HiRange). Format: cell-based. Conditions: HEK293-EBNA cells overexpressing mouse TGR5, HTRF cAMP HiRange; coded A-D. In outline:
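cAMP read by HTRF competition after 1 h room-temperature compound exposure of mouse TGR5-overexpressing HEK293-EBNA cells. Cells were suspended in serum-free DMEM containing 500 μM IBMX; compounds ran as 12-point half-log dilutions in duplicate; EC50 derived.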

The nature of data set [3]: Absorption vs. first pass metabolism: Cmax with and without 1-aminobenzotriazole (ABT) pre-treatment. In kind it is in vivo, mouse. The conditions noted are these: ICR mice, ABT 150 mg/kg p.o. 2 h before; compound 10 mg/kg p.o. How it is done: Absorption Vs. First Pass Metabolism
In this study, the absorption was examined as compared to first pass metabolism of the compounds of the present invention. ICR mice (Hilltop) were pre-treated with 1-aminobenzotriazole (ABT), a nonselective inhibitor of cytochrome P450 enzymes to inhibit Cyp450-mediated degradation of the compounds in liver.
ABT was administered at 150 mg/kg in 5 mL/kg of 0.04% ethanol in 0.5% methyl cellulose (w/v) by oral gavage, 2 hours prior to test compound administration. The compounds 20AA and 20AC were administered by oral gavage at 10 mg/kg in 10 mL/kg of 20% PEG400/80% (0.5% (w/v) CMC containing 0.25% (v/v) Tween 80) (v/v), 2 hours after the ABT treatment. Blood was collected via orbital bleeding at predose, 0.25, 0.5, 1, 2, and 4 hours post-dose and the quantification of compound levels in plasma was accomplished by means of LC-MS/MS analysis as described in Example 59. Reference compound “Propranolol” that is known to be metabolized by Cyp450 was used as a positive control.
FIG. 4 depicts the Cmax (nM) of the compounds of the present invention with and without ABT pre-treatment.

As for `COc1cnccc1-c1cccc(C(C)(C)NS(=O)(=O)c2ccccc2[N+](=O)[O-])c1` [Compound 2AU], the EC50 was < 100 nM at human TGR5 receptor, < 100 nM at mouse TGR5 receptor [1] and 1000 to 30000 nM with Mouse STC-1 cells.
In the case of `COc1cnccc1-c1cccc(C(C)(C)NS(=O)(=O)c2ccccc2C(F)(F)F)c1` [Compound 2AV], the figures for the 50% effective concentration (EC50) on human TGR5 receptor, on mouse TGR5 receptor [1] and with Mouse STC-1 cells were < 100 nM, 100 to 999 nM and 1000 to 30000 nM, respectively.
On the same counts, the results for `COc1cnccc1-c1cccc([C@H](C)NS(=O)(=O)c2ccccc2C(F)(F)F)c1` [Compound 2BQ] are < 100 nM, 100 to 999 nM and 1000 to 30000 nM.
On the same counts, the results for `CCOc1cnccc1-c1cccc(C(C)(C)NS(=O)(=O)c2ccccc2C(F)(F)F)c1` [Compound 8AC, N-(2-(3-(3-ethoxypyridin-4-yl)phenyl)propan-2-yl)-2-(trifluoromethyl)benzenesulfonamide] are < 100 nM, 100 to 999 nM and 100 to 999 nM.
Turning to `Cc1cnccc1-c1cccc(C2CN(CCCC(=O)NCS(=O)(=O)O)CCN2S(=O)(=O)c2cccc(Cl)c2C)c1` (stereo not shown) [Compound 53, (4-(4-((3-Chloro-2-methylphenyl)sulfonyl)-3-(3-(3-methylpyridin-4-yl)phenyl)piperazin-1-yl)butanamido)methanesulfonic acid], the EC50 on human TGR5 receptor was 100 to 999 nM; at mouse TGR5 receptor [2], < 100 nM; with Mouse STC-1 cells it was 100 to 999 nM.
`CC(C)NCC(O)COc1cccc2ccccc12` (stereo not shown) [propranolol, Propranolol, reference compound]: the “Cmax with versus without ABT pre-treatment” value in data set [3] was “significantly higher”.
